Experimental data from patent EP4603492A1, “SULFONAMIDE COMPOUND AND HARMFUL-ARTHROPOD-CONTROLLING COMPOSITION CONTAINING SAME” (Sumitomo Chemical Company, Limited, priority 2022, dated 2024).

Key:
Assay type in all cases: in vivo
[1] = test system: cotton aphids (Aphis gossypii); test: Test method 1: spray on cucumber seedlings infested with cotton aphids (Formulation Example 1); settings: 120 h, Test Example 1-1, spray 10 mL/seedling, 5 days after spraying, 25°C, read-out: control value
Protocol: (§1) Each test compound is formulated according to the method mentioned in Formulation Example 1 to obtain each formulation, and water containing 0.03% by volume of Shindaine (registered trademark) is added thereto to prepare a diluted solution containing a prescribed concentration of each test compound.
Approximately 30 cotton aphids (Aphis gossypii) (all stages of life) are released onto cucumber (Cucumis sativus) seedlings (on the developmental stage of the second true leaf) planted in a container. After 1 day, each of the diluted solutions is sprayed over the seedlings in a ratio of 10 mL/seedling. After additional 5 days, the number of the surviving insects is examined and the control value is calculated by the following equation. Control value (%) = {1−(Cb×Tai)/(Cai×Tb)} × 100 [formula] where symbols in the equation represent the following meanings: • Cb: Number of test insects in non-treated area; • Cai: Number of surviving insects at the time of the investigation in non-treated area; • Tb: Number of test insects in treated area; and • Tai: Number of surviving insects at the time of the investigation in treated area.
Here, the "non-treated area" represents an area where the same treatment procedure as that of the treated area is carried out except for not using each test compound.
The test was carried out by making the prescribed concentration 500 ppm and using the following present compounds as a test compound according to the test method 1.

[2] = test system: cotton aphids (Aphis gossypii); test: whole plant or invertebrate; settings: topical, 120 h, read-out: control value
Protocol: Each test compound is formulated according to the method mentioned in Formulation Example 5 to obtain each formulation, and water containing 0.03% by volume of […] (registered trademark) is added thereto to prepare a diluted solution containing a prescribed concentration of each test compound. Approximately thirty cotton aphids (Aphis gossypii) (all stages of life) are released onto cucumber (Cucumis sativus) seedlings (on the developmental stage of the second true leaf) planted in a container. After 1 day, each of the diluted solutions is sprayed over the seedlings in a ratio of 10 mL/seedling. After additional 5 days, the number of the surviving insects is examined and the control value is calculated by the following equation. Control value (%) = {1-(Cb×Tai)/(Cai×Tb)} × 100 [formula] where symbols in the equation represent the following meanings: • Cb: Number of test insects in non-treated area; • Cai: Number of surviving insects at the time of the investigation in non-treated area; • Tb: Number of test insects in treated area; and • Tai: Number of surviving insects at the time of the investigation in treated area. Here, the "non-treated area" represents an area where the same treatment procedure as that of the treated area is carried out except for not using each test compound. The test was carried out by making the prescribed concentration 200 ppm and using the following present compounds as a test compound according to the test method 11. […] The test was carried out by making the prescribed concentration 50 ppm and using the following present compounds as a test compound according to the test method 11.

[3] = test system: common cutworm (Spodoptera litura); test: Test method 9: sprayed cabbage seedlings, 3rd instar larvae of common cutworm (Formulation Example 5); settings: 144 h, Test Example 9-1, spray 20 mL/seedling, after 6 days, 25°C
Protocol: (§2) Each test compound is formulated according to the method mentioned in Formulation Example 5 to obtain each formulation, and water containing 0.03% by volume of Shindaine (registered trademark) is added thereto to prepare a diluted solution containing a prescribed concentration of each test compound.
(§3) Each of the diluted solutions is sprayed over cabbage (Brassicae oleracea) seedlings (on the developmental stage of the third to fourth true leaf) planted in a container in a ratio of 20 mL/seedling. Thereafter, ten 3rd instar larvae of common cutworm (Spodoptera litura) are released into the container. After 6 days, the number of the surviving insects is counted and the mortality of insects is calculated by the following equation. [formula]
The test was carried out by making the prescribed concentration 200 ppm and using the following present compounds as a test compound according to the test method 9.

[4] = test system: diamondback moth (Plutella xylostella); test: Test method 4: sprayed cabbage leaves, 2nd instar larvae of diamondback moth (Formulation Example 1); settings: 120 h, Test Example 4-1, spray 20 mL/seedling, after 5 days, 25°C
Protocol: as §1
(§4) Each of the diluted solutions is sprayed over cabbage (Brassicae oleracea) seedlings (on the developmental stage of the second to third true leaf) planted in a container in a ratio of 20 mL/seedling. Thereafter, the stem and leaf of the seedlings are cut out, and placed in a container lined with a filter paper. Five 2nd instar larvae of diamondback moth (Plutella xylostella) are released into the container. After 5 days, the number of the surviving insects is counted, and the mortality of insects is calculated by the following equation. [formula]
The test was carried out by making the prescribed concentration 500 ppm and using the following present compounds as a test compound according to the test method 4.

[5] = test system: western corn rootworm (Diabrotica virgifera virgifera); test: whole plant or invertebrate; settings: 120 h
Protocol: Each test compound is dissolved in 50 µL of a mixed solution of polyoxyethylene sorbitan monococoate and acetone (at a volume ratio of 5:95) per 1 mg of the test compound. Water containing 0.03% by volume of Shindaine (registered trademark) is added thereto to prepare a diluted solution containing a prescribed concentration of each test compound.
Young seedlings of corns (Zea mays) are immersed in each of the diluted solutions for 30 seconds. Thereafter, two seedlings are placed in a petri dish (diameter: 90 mm), and ten 2nd instar larvae of western corn rootworm (Diabrotica virgifera virgifera) are released into the dish. After 5 days, the number of the […] is counted, and the mortality of insects is calculated by the following equation. Mortality (%) = (1−Numberofdeadinsects/10) × 100 [formula]
The test was carried out by making the prescribed concentration 200 ppm and using the following present compounds as a test compound according to the test method 5.

[6] = test system: common house mosquito (Culex pipiens pallens); test: Test method 12: final instar larvae of common house mosquito released into diluted solution; settings: 24 h, read-out: control value
Protocol: Each test compound is formulated according to the method mentioned in Formulation Example 1 to obtain each formulation, and water is added thereto to prepare a diluted solution containing a prescribed concentration of each test compound.
Thirty final instar larvae of common house mosquito (Culex pipiens pallens) are released into the diluted solution and, after 1 day, the state of the common house mosquito larvae is examined and the mortality of insects is calculated by the following equation. [formula]
The test was carried out by making the prescribed concentration 3.5 ppm and using the following present compounds as a test compound according to the test method 12.

[7] = test system: German cockroach (Blattella germanica); test: Test method 6: coated container contact test, German cockroach male adults; settings: 72 h, read-out: mortality of insects
Protocol: An acetone solution prepared by making the concentration of the test compound 800 ppm is poured into a 50 mL container, and the inner face of the container is uniformly coated with the test compound so as to make the coating amount of 40 mg/m^2, followed by drying.
Five German cockroach (Blattella germanica) male adults are released into the container, and the container is then covered with a lid. After the prescribed time is elapsed, the state of the German cockroach are examined. The mortality of insects is calculated by the following equation. [formula]
The test was carried out by making the prescribed elapsed time 3 days and using the following present compounds as a test compound according to the test method 6.

[8] = test system: diamondback moth (Plutella xylostella); test: Test method 10: sprayed cabbage seedlings, 3rd instar larvae of diamondback moth (Formulation Example 5); settings: 120 h, spray 20 mL/seedling, after 5 days, 25°C; for mortality at 200 ppm: Test Example 10-1, 200 ppm; for mortality at 50 ppm: Test Example 10-2, 50 ppm
Protocol: as §2
as §3, with “diamondback moth (Plutella xylostella)” for “common cutworm (Spodoptera litura)”, “5” for “6”, “counted,” for “counted”
The test was carried out by making the prescribed concentration 200 ppm and using the following present compounds as a test compound according to the test method 10.
The test was carried out by making the prescribed concentration 50 ppm and using the following present compounds as a test compound according to the test method 10.

[9] = test system: common cutworm (Spodoptera litura); test: Test method 3: sprayed cabbage leaves, 2nd instar larvae of common cutworm (Formulation Example 1); settings: 120 h, Test Example 3-1, spray 20 mL/seedling, after 5 days, 25°C
Protocol: as §1
as §4, with “common cutworm (Spodoptera litura)” for “diamondback moth (Plutella xylostella)”
The test was carried out by making the prescribed concentration 500 ppm and using the following present compounds as a test compound according to the test method 3.

[10] = test system: houseflies (Musca domestica); test: Test method 8: coated container contact test, adult male houseflies; settings: 24 h, read-out: mortality of insects
Protocol: An acetone solution prepared by making the concentration of the test compound 800 ppm is poured into a 20 mL container, and the inner face of the container is uniformly coated with the test compound so as to make the coating amount of 40 mg/m^2, followed by drying.
Five adult male houseflies (Musca domestica) are released into the container, and the container is then covered with a lid. After the prescribed time is elapsed, the state of the houseflies are examined. The mortality of insects is calculated by the following equation. [formula]
The test was carried out by making the prescribed elapsed time 1 day and using the following present compounds as a test compound according to the test method 8.

Row | SMILES | mortality at 500 ppm [1] | mortality at 50 ppm [2] | mortality at 200 ppm [2] | mortality at 200 ppm [3] | mortality at 500 ppm [4] | mortality at 200 ppm [5] | mortality at 3.5 ppm [6] | mortality at 40 mg/m2, 40 mg/m2 [7] | mortality at 200 ppm [8] | mortality at 50 ppm [8] | mortality at 500 ppm [9] | mortality at 40 mg/m2, 40 mg/m2 [10]
1 | CCNS(=O)(=O)c1c(-c2cnc(OCC(F)(F)C(F)(F)F)cn2)nc2ccc(Br)cn12 [compound 2] | ≥ 90% | ≥ 90% | ≥ 90% | ≥ 80% | ≥ 80% | ≥ 80% | ≥ 90% | ≥ 80% | ≥ 80% | ≥ 80% | ≥ 80% | ≥ 80%
2 | CNS(=O)(=O)c1c(-c2cnc(OCC(F)(F)C(F)(F)F)cn2)nc2ccc(Br)cn12 [compound 1] | ≥ 90% | ≥ 90% | ≥ 90% | ≥ 80% | ≥ 80% | ≥ 80% | ≥ 90% | ≥ 80% | ≥ 80% | ≥ 80% | ≥ 80% | ≥ 80%
3 | CNS(=O)(=O)c1c(-c2ccc(OCC(F)(F)C(F)F)nn2)nc2ccc(I)cn12 [compound 3] | ≥ 90% | ≥ 90% | ≥ 90% | ≥ 80% | ≥ 80% | ≥ 80% |  |  | ≥ 80% | ≥ 80% | ≥ 80% | 
4 | CN(C)S(=O)(=O)c1c(-c2ccc(OCC(F)(F)C(F)F)nn2)nc2ccc(I)cn12 [compound 4] | ≥ 90% |  |  | ≥ 80% | ≥ 80% |  |  |  | ≥ 80% | ≥ 80% | ≥ 80% | 
